Test results reported in patent US20210188905A1, “COMBINING BETA-DIPEPTIDES AND AMINO ACIDS FOR OPTIMAL NUTRITIONAL SUPPLEMENTATION” (Cysal GmbH, priority 2018, published 2021).
Each block holds one compound with its values, some of them ahead of it.

What was measured:
[1] = tested on: rat liver extract; details: β-aspartyl-glycine as a substrate, Dorer et al.; cited from earlier work
[2] = target: T1, Trypsin (Bovine pancreas) (Bos taurus, UniProt P00760); experiment: Hydrolase susceptibility: trypsin, HPLC; assay type: in vitro ADME; details: 500 μg dipeptide per ml, 187.5 U, 25° C., pH 7.6, 24 h, FIG. 7
T1 construct: purchased Sigma T1426-50MG; host or cells: bovine pancreas
T1 sequence (P00760 24-246): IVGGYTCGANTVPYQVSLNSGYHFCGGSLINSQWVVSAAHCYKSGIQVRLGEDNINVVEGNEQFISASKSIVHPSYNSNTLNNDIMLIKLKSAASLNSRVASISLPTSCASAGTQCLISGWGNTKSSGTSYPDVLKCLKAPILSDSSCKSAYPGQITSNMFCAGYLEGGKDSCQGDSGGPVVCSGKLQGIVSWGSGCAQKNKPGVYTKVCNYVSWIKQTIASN
Procedure: (§1) Arginase catalyzes the final step of the urea cycle and converts L-arginine into L-ornithine und urea. The other tested enzymes (proteases) are able to cleave α-peptide bonds involving aspartate and/or arginine. The release of free amino acids or modified dipeptide after treatment with these enzymes is monitored by HPLC. The substance used for the experiments is a white powder of β-L-aspartyl-L-arginine. The purity is >99% and was determined by HPLC-analysis.

[3] = target: T2, Clostripain (Cl. histolyticum) (Hathewaya histolytica, UniProt P09870); experiment: Hydrolase susceptibility: clostripain, HPLC; assay type: in vitro ADME; details: 500 μg dipeptide per ml, 10 U, 25° C., pH 7.4, 24 h, FIG. 7
T2 construct: purchased Sigma C0888-250UN
T2 sequence (P09870 191-526): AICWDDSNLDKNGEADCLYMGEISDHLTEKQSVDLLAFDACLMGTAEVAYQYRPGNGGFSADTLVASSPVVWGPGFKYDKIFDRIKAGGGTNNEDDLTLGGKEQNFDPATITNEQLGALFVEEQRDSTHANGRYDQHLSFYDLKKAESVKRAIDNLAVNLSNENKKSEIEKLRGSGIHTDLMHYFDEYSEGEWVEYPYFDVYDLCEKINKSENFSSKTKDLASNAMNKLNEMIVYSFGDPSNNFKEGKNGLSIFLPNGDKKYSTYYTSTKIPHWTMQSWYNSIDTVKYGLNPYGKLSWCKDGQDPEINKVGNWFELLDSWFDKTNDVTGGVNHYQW
T2 sequence (P09870 51-181): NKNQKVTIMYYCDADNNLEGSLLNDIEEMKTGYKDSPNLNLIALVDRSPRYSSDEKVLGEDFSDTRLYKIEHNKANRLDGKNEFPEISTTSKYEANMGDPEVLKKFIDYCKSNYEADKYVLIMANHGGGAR
Procedure: as §1

[4] = Oral supplementation of healthy volunteers, levels in whole blood by UPLC-MSMS; assay type: in vivo, human
Procedure: β-Aspartyl-arginine was administered orally either alone or in combination with arginine, and in varying doses. Levels of dipeptide in blood are then monitored over time. The substance used for the experiments is a white powder of β-aspartyl-arginine. The purity is >99% and was determined by HPLC-analysis.
Experimental procedure: The volunteers were three healthy males (age 41 to 51 years, 173-187 cm height, 80-85 kg weight, BMI around 25 kg/m^2). […] The volunteers fasted throughout the experiment. Blood was collected from the fingertip using a lancet device and blotted onto sample cards and levels of dipeptide and amino acids were determined by UPLC-MSMS by an external service provider (Labor Blessing, Singen Germany).

[5] = target: T3, Chymotrypsin (Bovine pancreas) (Bos taurus, UniProt P00766); experiment: Hydrolase susceptibility: chymotrypsin, HPLC; assay type: in vitro ADME; details: 500 μg dipeptide per ml, 150 U, 30° C., pH 7.8, 24 h, FIG. 7
T3 construct: purchased Applichem A4531; host or cells: bovine pancreas
Procedure: as §1

[6] = tested on: Endoproteinase ArgC (mouse); experiment: Hydrolase susceptibility: endoproteinase Arg-C, HPLC; assay type: in vitro ADME; details: 500 μg dipeptide per ml, 37° C., pH 8.5, 24 h, FIG. 7
Procedure: as §1

[7] = tested on: Proteinase N (Bacillus subtilis); experiment: Hydrolase susceptibility: proteinase N, HPLC; assay type: in vitro ADME; details: 500 μg dipeptide per ml, 28.4 U, 37° C., pH 1-3, 24 h, FIG. 7
Procedure: as §1

[8] = tested on: bovine liver extract (β-aspartyl peptidases); experiment: Cleavage of β-aspartyl dipeptide by bovine liver extract, HPLC; assay type: in vitro ADME; details: 10 mM dipeptide, 37° C.
Description: β-aspartyl dipeptides contain an isoaspartyl peptide bond instead of the α bond common in proteins. It is therefore resistant to cleavage by most common proteases and peptidases. While this resistance is an advantage in the gut and in the bloodstream as it prevents cleavage before reaching the target tissue, it does raise the question as to how the dipeptide is introduced into the metabolism. Specific cytoplasmic isoaspartases (also known as β-aspartyl peptidases) have been found in mammalian tissues that are capable of cleaving a large variety of β-aspartyl dipeptides and related compounds. Specificity is towards the β-aspartyl moiety, with the identity of the moiety bound to this residue being of little importance. The overall reaction can be summarized as:
The substance used for the experiments is a white powder of β-L-aspartyl-L-arginine. The purity is >99% and was determined by HPLC-analysis.
Bovine liver purchased from a butcher was chosen as a model due to ready availability. Liver (50 g fresh weight) was homogenized using a Waring blender in four times its volume of ice-cold phosphate-buffered saline. Insoluble material was removed by centrifugation for 15 min at 9,000×g at 4° C. The supernatant (liver extract) was used immediately as a test solution.
Test setup: An aliquot of 900 μl of liver extract in a 1.5-ml polypropylene tube was placed into a heat block at 37° C. and allowed to heat up for 10 min. Then, a volume of 100 μl of a solution of 100 mM β-aspartyl-arginine phosphate-buffered saline was added to a give a final concentration of 10 mM. Samples of 100 μl were taken at 0, 1, 2, 3, and 4 h after addition of the dipeptide. Immediately after each sample was taken, it was added to a 1.5-ml screw-cap polypropylene tube containing 100 μl of 10% SDS in water and 700 μl of demineralized water. This tube was immediately heated to 100° C. for 10 min to stop any further enzyme activity. The tube was then cooled to room temperature and 100 μl of 10% KCl solution were added. […] The samples were then diluted appropriately with demineralized water and analyzed by HPLC.

[9] = target: T4, Arginase (Bovine) (Bos taurus, UniProt Q2KJ64); experiment: Hydrolase susceptibility: arginase reaction, HPLC; assay type: in vitro ADME; details: 500 μg per ml, 100 U arginase, 37° C., pH 9.5, FIG. 5/6
T4 construct: purchased Alexis Bio/Sigma ALX-201-081-C020
T4 sequence (Q2KJ64 1-322): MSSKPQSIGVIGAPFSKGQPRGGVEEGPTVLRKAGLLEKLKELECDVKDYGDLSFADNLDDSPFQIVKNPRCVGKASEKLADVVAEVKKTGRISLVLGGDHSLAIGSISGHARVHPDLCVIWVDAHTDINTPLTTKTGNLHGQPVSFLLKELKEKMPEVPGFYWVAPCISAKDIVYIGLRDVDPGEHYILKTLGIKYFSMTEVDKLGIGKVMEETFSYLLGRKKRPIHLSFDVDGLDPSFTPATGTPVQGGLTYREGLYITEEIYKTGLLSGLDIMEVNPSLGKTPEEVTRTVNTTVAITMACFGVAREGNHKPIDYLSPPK
Description: The release of free amino acids or modified dipeptide after treatment with these enzymes is monitored by HPLC.

[10] = oral consumption, human use data; cited from earlier work
[11] = equimolar oral doses of free arginine (as arginine aspartate salt), FIG. 3

SMILES: N[C@@H](CC(=O)NCC(=O)O)C(=O)O [β-aspartyl-glycine]
hydrolysis activity of rat liver extract [1]: 0.028 U/mg

SMILES: N=C(N)NCCC[C@H](NC(=O)C[C@H](N)C(=O)O)C(=O)O [β-aspartyl-arginine, β-L-aspartyl-L-arginine]
change of dipeptide concentration after trypsin treatment [2]: No significant difference
change of dipeptide concentration after clostripain treatment [3]: No significant difference
form in which the orally administered substance is taken up into the bloodstream ([4]; oral): uncleaved dipeptide form
period over which the concentration of the dipeptide in whole blood increased ([4]; oral 2.5 g or 5 g dipeptide in 400 ml water, fasted, three volunteers, FIG. 1): about six
time for which the dipeptide was still detectable in whole blood ([4]; oral 2.5 g or 5 g dipeptide, FIG. 1): 12 h
free arginine in blood after administration of the dipeptide ([4]; oral dipeptide alone): only detected at baseline levels
effect of doubling the oral dose on maximum concentration in whole blood ([4]; oral dose from 2.5 g to 5 g): approximately doubled
change of dipeptide concentration after chymotrypsin treatment [5]: No significant difference
change of dipeptide concentration after endoproteinase Arg-C treatment [6]: No significant difference
change of dipeptide concentration after proteinase N treatment [7]: No significant difference
cleavage by enzymes present in bovine liver ([8]; 0-4 h): is cleaved
hydrolysis activity of liver extract per protein ([8]; bovine liver extract): 0.065 U/mg protein
hydrolysis activity of liver extract ([8]; smaller timescale experiment, FIG. 8): 2.5 mg of dipeptide being hydrolyzed per gram of liver tissue per hour
hydrolysis by arginase [9]: no significant difference to the start concentration

time for blood concentrations to return to baseline [4, 11]: ≤ 4 h
time of fast increase in blood concentration [4, 11]: two
SMILES: N=C(N)NCCC[C@H](N)C(=O)O [arginine, reference compound]
oral amount beyond which arginine levels in blood do not increase [10]: 2.5 g
effect of the 5-g dose on blood concentrations versus 2.5 g ([4]; oral free arginine (as arginine aspartate salt), FIG. 3): did not lead to substantially increased blood concentrations
